Columns and labels:
Assay type in all cases: cell-based
[1] = tested on: Propionibacterium acnes NCTC 737; test: Minimum Inhibitory Concentration (MIC) assay, broth microdilution; conditions: for MIC: Cutibacterium acnes, NCTC737, P. acnes NCTC 737, Wilkins-Chalgren broth pH 6.0, anaerobic, 37° C., 72 hours, read-out: MIC
Method: (§1) The test micro-organism represented the cutaneous propionibacteria. […] The propionibacteria are clinically significant due to their involvement in acne. This is a very common, complex and multi-factorial skin disease in which P. acnes and other Propionibacterium spp. […] They are also opportunistic pathogens in compromised hosts.
(§2) The propionibacteria were cultured and maintained on Wilkins-Chalgren Anaerobe Medium (agar and broth) at pH 6.0; all cultures were incubated anaerobically at 37° C. for 72 hours.
This is a standard international method for quantitatively assessing the antimicrobial activity of a compound in a liquid medium. […] The culture media were as described above.
The wells were inoculated with a liquid suspension of freshly grown micro-organism and incubated under the conditions described above. After incubation, the microtitre plate was examined visually (with the aid of a light box) for cloudiness in each well, which would indicate microbial growth. The MIC value was recorded as the lowest concentration of test compound required to inhibit microbial growth, ie the lowest concentration for which the liquid in the well remained clear.
The assays included both negative (culture medium with no micro-organisms) and positive (culture medium plus diluting solvent plus micro-organism) controls.
(§3) MIC, MBC and DDA assays, as described above, were carried out using as the test compound sodium n-tetradecyl sulphate (STS, ex Sigma Aldrich, UK), dissolved in distilled water. All the experiments were conducted in triplicate. For the DDA experiments, 200 μg of the test compound was loaded onto each disc.
(§4) The MIC/MBC experiments were conducted in triplicate, with the exception of those for SDS and ADS which were conducted in duplicate. The DDAs were performed either in triplicate, in which case standard deviations are quoted in parentheses, or as a single replicate. For the DDA experiments, 200 μg of the test compound was loaded onto each disc.

[2] = tested on: Propionibacterium acnes NCTC 737; test: Minimum Biocidal (Bactericidal) Concentration (MBC) assay; conditions: P. acnes NCTC 737; for MBC: Cutibacterium acnes, NCTC737, sub-culture on antibiotic-free agar after MIC assay, read-out: MBC
Method: as §1, §2
This assay, normally carried out after an MIC assay, determines the minimum concentration of a compound that is lethal to the micro-organism being tested.
These samples were then individually sub-cultured on antibiotic-free agar medium, under the incubation conditions described above. Following incubation they were examined visually for microbial growth.
as §3, §4

[3] = tested on: Propionibacterium acnes NCTC 737; test: Disc Diffusion Assay (DDA); conditions: P. acnes NCTC 737, 200 μg of test compound per disc; for zone of inhibition at 200 µg/disc: Cutibacterium acnes, NCTC737, read-out: DDA (diameter of zone of inhibition)
Method: as §1, §2
This is an internationally recognised standard method for qualitatively assessing the antimicrobial activity of a compound.
(§5) A sterile paper disc was impregnated with a sample of the test compound in a suitable solvent and 30 minutes allowed for the solvents to evaporate (where possible). The disc was then placed on an agar plate onto which the test micro-organism had been inoculated. The plate was then incubated under the conditions described above, following which it was examined visually for signs of microbial growth. […] The diameter of this zone of ‘inhibition’ was measured using a ProtoCOL™ automated zone sizer (Synbiosis, Cambridge, UK).
as §3, §4

[4] = tested on: Propionibacterium acnes NCTC 737; test: Supplemented Disc Diffusion Assay (agar with salt or lipid); conditions: P. acnes NCTC 737, 200 μg per disc; for zone of inhibition at 200 µg/disc: Cutibacterium acnes, NCTC737, 72 h
Method: as §1, §2, §5
Performance under these conditions can provide a more reliable indication of activity on topical application.
as §3, §4

[5] = agar supplemented with sodium chloride (100 mM), read-out: DDA + salt
[6] = agar supplemented with triolein at 1% v/v, read-out: DDA + lipid

## CCCCCCOS(=O)(=O)[O-].[Na+] [Sodium n-hexyl sulphate, sodium n-hexyl sulphate]
[1]
  MIC: > 250 µg/mL
[2]
  MBC: > 250 µg/mL
[3]
  zone of inhibition at 200 µg/disc: 0 mm
[4]; [5]
  zone of inhibition at 200 µg/disc: 0 mm
[4]; [6]
  zone of inhibition at 200 µg/disc: 0 mm

## CCCCCCCOS(=O)(=O)[O-].[Na+] [Sodium-n-heptyl sulphate, sodium-n-heptyl sulphate]
[1]
  MIC: > 250 µg/mL
[2]
  MBC: > 250 µg/mL
[3]
  zone of inhibition at 200 µg/disc: 0 mm
[4]; [5]
  zone of inhibition at 200 µg/disc: 0 mm
[4]; [6]
  zone of inhibition at 200 µg/disc: 0 mm

## CCCCCCCCCCCCCOS(=O)(=O)[O-].[Na+] [Sodium tridecyl sulphate, sodium tridecyl sulphate]
[1]
  MIC: 7.8 µg/mL
[2]
  MBC: 7.8 µg/mL
  MIC/MBC ratio: 1
[3]
  zone of inhibition at 200 µg/disc: 32.2 mm
[4]; [5]
  zone of inhibition at 200 µg/disc: 33.3 mm
[4]; [6]
  zone of inhibition at 200 µg/disc: 31.8 mm

## CCCCCCCCCCCCCCCS(=O)(=O)O.[Na] [Sodium 1-pentadecane sulphonic acid, sodium 1-pentadecane sulphonic acid]
[1]
  MIC: 0.98 µg/mL
[2]
  MBC: 3.9 µg/mL
  MIC/MBC ratio: 0.25
[3]
  zone of inhibition at 200 µg/disc: 11.8 mm
[4]; [5]
  zone of inhibition at 200 µg/disc: 12.1 mm
[4]; [6]
  zone of inhibition at 200 µg/disc: 0 mm

## CCCCCCCCCCCCCCOS(=O)(=O)O [Sodium n-tetradecyl sulphate, sodium n-tetradecyl sulphate]
[1]
  MIC: 0.98 µg/mL
[1]; summary of MIC, MBC and DDA results
  antibacterial activity against P. acnes NCTC 737 (in words): highly active
[2]
  MBC: 0.98 µg/mL
  MIC/MBC ratio: 1
[3]
  zone of inhibition at 200 µg/disc: 29.9 mm
[3]; sulphate
  DDA (diameter of zone of inhibition): 29.87 mm
[4]; [5]
  zone of inhibition at 200 µg/disc: 31.6 mm
[4]; [6]
  zone of inhibition at 200 µg/disc: 33.7 mm
[4]; agar supplemented with sodium chloride (100 mM), sulphate
  DDA + salt: 31.62 mm
[4]; agar supplemented with triolein at 1% v/v, sulphate
  DDA + lipid: 33.67 mm

## CCCCCCCCCOS(=O)(=O)[O-].[Na+] [Sodium n-nonyl sulphate, sodium n-nonyl sulphate]
[1]
  MIC: 250 µg/mL
[2]
  MBC: 250 µg/mL
  MIC/MBC ratio: 1
[3]
  zone of inhibition at 200 µg/disc: 0 mm
[4]; [5]
  zone of inhibition at 200 µg/disc: 0 mm
[4]; [6]
  zone of inhibition at 200 µg/disc: 0 mm

## CCCCCCCCCCCCS(=O)(=O)[O-].[Na+] [Sodium 1-dodecanesulphonate, sodium 1-dodecanesulphonate]
[1]
  MIC: 125 µg/mL
[2]
  MBC: 250 µg/mL
  MIC/MBC ratio: 0.5
[3]
  zone of inhibition at 200 µg/disc: 18.1 mm
[4]; [5]
  zone of inhibition at 200 µg/disc: 23 mm
[4]; [6]
  zone of inhibition at 200 µg/disc: 18.4 mm

## CCCCCCCCCCCCCCCCOS(=O)(=O)[O-].[Na+] [Sodium hexadecyl sulphate, sodium hexadecyl sulphate]
[1]
  MIC: 0.98 µg/mL
[2]
  MBC: 1.95 µg/mL
  MIC/MBC ratio: 0.5
[3]
  zone of inhibition at 200 µg/disc: 36.3 mm
[4]; [5]
  zone of inhibition at 200 µg/disc: 32.4 mm
[4]; [6]
  zone of inhibition at 200 µg/disc: 39.8 mm
